Values of other authors in patent US20120178147A1, “MICROBIAL CULTURES AND METHODS FOR ANAEROBIC BIOREMEDIATION” (priority 2009, published 2012).
Read-outs that look alike come from different tables or passages of the source.

How the values were obtained:
[1] = test system: algae, aquatic invertebrates and fish; settings: cited from earlier work
[2] = cited from earlier work
[3] = test system: Gram-positive bacteria, such as staphylococcus; settings: cited from earlier work
Rainbow trout = settings: in vivo; cited from earlier work
North American bullfrog = settings: alters thyroid hormone-mediated postembryonic development; cited from earlier work
[4] = continuous-flow activated sludge, 0.5 to 2 mg/L TCS (Stasinakis et al., 2007); cited from earlier work
Scenedesmus subspicatus = settings: cited from earlier work

O=C(Nc1ccc(Cl)cc1)Nc1ccc(Cl)c(Cl)c1 [TCC, 3-(4-chlorophenyl)-1-(3,4-dichlorphenyl) urea]
Predicted No Effect Concentration (PNEC) [1]: 0.146 µg/L
ratio of PEC/PNEC [1]: 0.009 to 0.34
biodegradation ([2]; TCC 20 μg/L): 60%
biodegradation ([2]; TCC 2000 μg/L): 70%
biodegradation of the dichloroaniline ring ([2]; bench scale CFAS system): 25.9%
biodegradation of the p-chloroaniline ring ([2]; bench scale CFAS system): 56%
concentration that effectively inhibits Gram-positive bacteria [3]: 100 to 200 µg/L

Oc1cc(Cl)ccc1Oc1ccc(Cl)cc1Cl [TCS, 5-chloro-2-[2,4-dichloro-phenoxy]-phenol]
NOEC (Rainbow trout): 34 µg/L
median EC50 (Rainbow trout): 0.35 mg/L
concentration acting as an endocrine disruptor (North American bullfrog): 0.15 ± 0.03 ng/mL
removed by biodegradation and sorption [4]: 90%
96-h effective concentration (EC50) for growth (Scenedesmus subspicatus): 0.0014 mg/L
96-h no-observed effect concentration (NOEC) (Scenedesmus subspicatus): 0.69 µg/L
